Results on ten compounds are retold here after ChEMBL document CHEMBL1949505, “Total synthesis and structure-activity relationships of new echinocandin-like antifungal cyclolipohexapeptides” (2012).

≈ marks a conversion by molar mass, not a printed value. Bridge positions count the residues as written; N and C are the ends. Square brackets hold non-standard residues; d marks the D form. Peptide text beside a SMILES is read from it. * marks the point of attachment. pTerphenylCO(4''-OnC5H11) = CCCCCOc1ccc(-c2ccc(-c3ccc(C(=O)*)cc3)cc2)cc1; 2Naphthoyl(6-heptyloxy) = CCCCCCCOc1ccc2cc(C(=O)*)ccc2c1; 2Naphthoyl(6-octyloxy) = CCCCCCCCOc1ccc2cc(C(=O)*)ccc2c1; X1 = CCCOc1ccc(-c2ccc(-c3ccc(C(=O)*)cc3)cc2)cc1; Pro(4S-NH2) = N[C@@H]1CN[C@H](C(=O)O)C1; hTyr = N[C@@H](CCc1ccc(O)cc1)C(=O)O; Orn = NCCC[C@H](N)C(=O)O

Assay type in all cases: functional
In assay [1] the test system is Candida albicans. The assay can be described thus: Ratio of caspofungin MIC to compound MIC for Candida albicans by serial dilution method.
In assay [2] the test system is Candida albicans. The assay can be described thus: Antifungal activity against Candida albicans after 24 hrs by serial dilution method.
Another assay relates to Candida parapsilosis. Briefly: Antifungal activity against Candida parapsilosis after 24 hrs by serial dilution method. The settings on record: Lodderomyces parapsilosis.
For another assay, the system named is Trichophyton rubrum. Briefly: Antifungal activity against Trichophyton rubrum after 7 days by serial dilution method. The conditions noted are these: 168 h.
The test system of a further assay is Candida tropicalis. Briefly: Antifungal activity against Candida tropicalis after 24 hrs by serial dilution method.
The subject of a further assay is Cryptococcus neoformans. Briefly: Antifungal activity against Cryptococcus neoformans after 72 hrs by serial dilution method.
In a further assay the test system is Pichia kudriavzevii. The assay can be described thus: Antifungal activity against Candida krusei after 24 hrs by serial dilution method.
The test system of another assay is Aspergillus fumigatus. The assay can be described thus: Antifungal activity against Aspergillus fumigatus after 7 days by serial dilution method. The settings on record: 168 h.

With `CCCOc1ccc(-c2ccc(-c3ccc(C(=O)N[C@H]4CCCNC(=O)[C@@H]5C[C@H](N)CN5C(=O)[C@H](CCCN)NC(=O)[C@H](CCc5ccc(O)cc5)NC(=O)[C@@H]5CCCN5C(=O)[C@H]([C@@H](C)O)NC4=O)cc3)cc2)cc1.Cc1ccc(S(=O)(=O)O)cc1` (X1-[Orn]TP[hTyr][Orn][Pro(4S-NH2)]; lactam 1-C), in the assay on Candida albicans [1], the Ratio amounted to 4. For the same compound, the MIC80 – broadly, the lowest concentration that inhibits either 80% of growth or 80% of the strains tested, depending on the study – in the assay on Candida albicans [2] was determined as 0.125 µg/mL; in the assay with Candida parapsilosis, 4 µg/mL; in the assay on Trichophyton rubrum, 64 µg/mL; with Candida tropicalis, 8 µg/mL; against Cryptococcus neoformans, 32 µg/mL; with Pichia kudriavzevii it was 0.5 µg/mL. Moreover, in the assay with Aspergillus fumigatus, the MIC80 stood at 2 µg/mL.

With `CCCCCCCOc1ccc2cc(C(=O)N[C@H]3CCCNC(=O)[C@@H]4C[C@H](N)CN4C(=O)[C@H](CCCCN)NC(=O)[C@H](CCc4ccc(O)cc4)NC(=O)[C@@H]4CCCN4C(=O)[C@H]([C@@H](C)O)NC3=O)ccc2c1.Cc1ccc(S(=O)(=O)O)cc1` ({2Naphthoyl(6-heptyloxy)}-[Orn]TP[hTyr]K[Pro(4S-NH2)]; lactam 1-C), the Ratio in the assay with Candida albicans [1] stood at 4. In addition, the MIC80 against Candida albicans [2] is 0.125 µg/mL; in the assay with Candida parapsilosis, 4 µg/mL; with Trichophyton rubrum it was 32 µg/mL; with Candida tropicalis, 16 µg/mL; with Cryptococcus neoformans, 64 µg/mL; against Pichia kudriavzevii, 0.5 µg/mL. This compound also came in with an MIC80 against Aspergillus fumigatus of 1 µg/mL.

For the compound `CCCCCCCCOc1ccc2cc(C(=O)N[C@H]3CCCNC(=O)[C@@H]4C[C@H](N)CN4C(=O)[C@H](CCCN)NC(=O)[C@H](CCc4ccc(O)cc4)NC(=O)[C@@H]4CCCN4C(=O)[C@H]([C@@H](C)O)NC3=O)ccc2c1.Cc1ccc(S(=O)(=O)O)cc1` ({2Naphthoyl(6-octyloxy)}-[Orn]TP[hTyr][Orn][Pro(4S-NH2)]; lactam 1-C), the MIC80 is 0.5 µg/mL against Candida albicans [2]; 4 µg/mL in the assay on Candida parapsilosis; 32 µg/mL against Trichophyton rubrum; 4 µg/mL against Candida tropicalis; 32 µg/mL with Cryptococcus neoformans; 1 µg/mL in the assay with Pichia kudriavzevii. In the assay on Aspergillus fumigatus, this compound showed an MIC80 of 1 µg/mL.

Consider `CCCCCCCCOc1ccc2cc(C(=O)N[C@H]3CCCNC(=O)[C@@H]4C[C@H](N)CN4C(=O)[C@H](CCCCN)NC(=O)[C@H](CCc4ccc(O)cc4)NC(=O)[C@@H]4CCCN4C(=O)[C@H](C(C)C)NC3=O)ccc2c1.Cc1ccc(S(=O)(=O)O)cc1` ({2Naphthoyl(6-octyloxy)}-[Orn]VP[hTyr]K[Pro(4S-NH2)]; lactam 1-C), for which the MIC80 in the assay on Candida albicans [2] came to 1 µg/mL; against Candida parapsilosis, 4 µg/mL; against Trichophyton rubrum, 32 µg/mL; in the assay on Candida tropicalis, 32 µg/mL; with Cryptococcus neoformans it was 32 µg/mL; with Pichia kudriavzevii, 2 µg/mL. The compound further showed an MIC80 against Aspergillus fumigatus of 1 µg/mL.

Turning to `CCCCCCCCOc1ccc2cc(C(=O)N[C@H]3CCCNC(=O)[C@@H]4C[C@H](N)CN4C(=O)[C@H](CCCN)NC(=O)[C@H](CCc4ccc(O)cc4)NC(=O)[C@@H]4CCCN4C(=O)[C@H](C(C)C)NC3=O)ccc2c1.Cc1ccc(S(=O)(=O)O)cc1` ({2Naphthoyl(6-octyloxy)}-[Orn]VP[hTyr][Orn][Pro(4S-NH2)]; lactam 1-C), the MIC80 with Candida albicans [2] is 0.5 µg/mL; against Candida parapsilosis, 2 µg/mL; against Trichophyton rubrum, 16 µg/mL; in the assay on Candida tropicalis, 16 µg/mL; with Cryptococcus neoformans, 16 µg/mL; in the assay with Pichia kudriavzevii, 2 µg/mL. Moreover, in the assay on Aspergillus fumigatus, the MIC80 came out at 1 µg/mL.

For the compound `CCCCCOc1ccc(-c2ccc(-c3ccc(C(=O)N[C@H]4CCCNC(=O)[C@@H]5C[C@H](N)CN5C(=O)[C@H](CCCCN)NC(=O)[C@H](CCc5ccc(O)cc5)NC(=O)[C@@H]5CCCN5C(=O)[C@H]([C@@H](C)O)NC4=O)cc3)cc2)cc1.Cc1ccc(S(=O)(=O)O)cc1` ({pTerphenylCO(4''-OnC5H11)}-[Orn]TP[hTyr]K[Pro(4S-NH2)]; lactam 1-C), the MIC80 with Candida albicans [2] was found to be 0.5 µg/mL; against Candida parapsilosis, 2 µg/mL; in the assay on Trichophyton rubrum it was 32 µg/mL; against Candida tropicalis, 8 µg/mL; against Cryptococcus neoformans it was 16 µg/mL; with Pichia kudriavzevii, 1 µg/mL. In the assay on Aspergillus fumigatus, the MIC80 came out at 1 µg/mL.

Regarding `CCCCCOc1ccc(-c2ccc(-c3ccc(C(=O)N[C@H]4CCCNC(=O)[C@@H]5C[C@H](N)CN5C(=O)[C@H](CCCN)NC(=O)[C@H](CCc5ccc(O)cc5)NC(=O)[C@@H]5CCCN5C(=O)[C@H]([C@@H](C)O)NC4=O)cc3)cc2)cc1.Cc1ccc(S(=O)(=O)O)cc1` ({pTerphenylCO(4''-OnC5H11)}-[Orn]TP[hTyr][Orn][Pro(4S-NH2)]; lactam 1-C), the MIC80 with Candida albicans [2] turned out to be 0.25 µg/mL; in the assay with Candida parapsilosis it was 8 µg/mL; in the assay with Trichophyton rubrum, 64 µg/mL; in the assay on Candida tropicalis it was 4 µg/mL; in the assay with Cryptococcus neoformans, 64 µg/mL; in the assay on Pichia kudriavzevii, 0.5 µg/mL. For the same compound, the MIC80 against Aspergillus fumigatus stood at 1 µg/mL.

Take `CCCCCOc1ccc(-c2ccc(-c3ccc(C(=O)N[C@H]4CCCNC(=O)[C@@H]5C[C@H](N)CN5C(=O)[C@H](CCCCN)NC(=O)[C@H](CCc5ccc(O)cc5)NC(=O)[C@@H]5CCCN5C(=O)[C@H](C(C)C)NC4=O)cc3)cc2)cc1.Cc1ccc(S(=O)(=O)O)cc1` ({pTerphenylCO(4''-OnC5H11)}-[Orn]VP[hTyr]K[Pro(4S-NH2)]; lactam 1-C): the MIC80 in the assay with Candida albicans [2] was found to be 1 µg/mL; in the assay on Candida parapsilosis it was 4 µg/mL; in the assay on Trichophyton rubrum, 32 µg/mL; against Candida tropicalis, 16 µg/mL; in the assay with Cryptococcus neoformans it was 32 µg/mL; in the assay on Pichia kudriavzevii, 2 µg/mL. In addition, in the assay with Aspergillus fumigatus, the MIC80 turned out to be 1 µg/mL.

For the compound `CCCCCOc1ccc(-c2ccc(-c3ccc(C(=O)N[C@H]4CCCNC(=O)[C@@H]5C[C@H](N)CN5C(=O)[C@H](CCCN)NC(=O)[C@H](CCc5ccc(O)cc5)NC(=O)[C@@H]5CCCN5C(=O)[C@H](C(C)C)NC4=O)cc3)cc2)cc1.Cc1ccc(S(=O)(=O)O)cc1` ({pTerphenylCO(4''-OnC5H11)}-[Orn]VP[hTyr][Orn][Pro(4S-NH2)]; lactam 1-C), the MIC80 is 1 µg/mL in the assay with Candida albicans [2]; 4 µg/mL with Candida parapsilosis; 32 µg/mL against Trichophyton rubrum; 8 µg/mL against Candida tropicalis; 32 µg/mL against Cryptococcus neoformans; 2 µg/mL against Pichia kudriavzevii. In the assay on Aspergillus fumigatus, this compound yielded an MIC80 of 0.5 µg/mL.

On to `CC[C@H](C)C[C@H](C)CCCCCCCCC(=O)N[C@H]1C[C@@H](O)[C@@H](NCCN)NC(=O)[C@@H]2[C@@H](O)CCN2C(=O)[C@H]([C@H](O)CCN)NC(=O)[C@H]([C@H](O)[C@@H](O)c2ccc(O)cc2)NC(=O)[C@@H]2C[C@@H](O)CN2C(=O)[C@H]([C@@H](C)O)NC1=O` [CASPOFUNGIN], for which the MIC80 stood at 0.5 µg/mL (≈ 0.457 µM) in the assay with Candida albicans [2]; 1 µg/mL (≈ 0.915 µM) in the assay with Candida parapsilosis; 16 µg/mL (≈ 14.6 µM) against Trichophyton rubrum; 4 µg/mL (≈ 3.66 µM) against Candida tropicalis; 16 µg/mL (≈ 14.6 µM) against Cryptococcus neoformans; 0.25 µg/mL (≈ 0.229 µM) in the assay on Pichia kudriavzevii. This compound also gave an MIC80 in the assay on Aspergillus fumigatus of 1 µg/mL (≈ 0.915 µM).
